In patent publication US10227331B2 (priority 2015, dated 2019):

Tests used:
[1] = test system: Serratia marcescens expressing IMP-1 (CL5741); assay type: cell-based; conditions: with imipenem 1 μg/ml; 95% inhibition of bacterial growth
Procedure, shortened: (§1)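 Restoration of imipenem susceptibility (1 μg/ml imipenem) was judged by absorbance after 22–24 h at 35° C. Test compound was added to bacteria suspended 1:100 in 1.1× CAMHB from overnight blood-agar cultures.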

[2] = test system: Klebsiella pneumoniae expressing VIM-1 (IHMA599644); assay type: cell-based; conditions: with imipenem 1 μg/ml; 95% inhibition of bacterial growth
Procedure, shortened: as §1

[3] = test system: Escherichia coli expressing NDM-1 (CLB30005, CLB30016); assay type: cell-based; conditions: with imipenem 1 μg/ml; 95% inhibition of bacterial growth
Procedure, shortened: as §1

[4] = molecular target: VIM-1 (Pseudomonas aeruginosa (strain ATCC 15692 / DSM 22644 / CIP 104116 / JCM 14847 / LMG 12228 / 1C / PRS 101 / PAO1), UniProt A0A0F7KYQ8); test: biochemical; conditions: CCF2-FA substrate, 2 hours at 25° C
Procedure, shortened: (§2)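 Semi-log dose-response curves, fitted with a 4-parameter model, gave IC50s. The underlying signal was CCF2-FA fluorescence following 2 hours at 25° C with enzyme, substrate and inhibitor combined.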

[5] = molecular target: IMP-1 (Serratia marcescens, UniProt P52699); test: biochemical; assay type: biochemical; conditions: CCF2-FA substrate, 2 hours at 25° C; read-out: IMP-1 IC50
Procedure, shortened: as §2

[6] = molecular target: NDM-1 (Klebsiella pneumoniae, UniProt C7C422); test: biochemical; assay type: biochemical; conditions: CCF2-FA substrate, 2 hours at 25° C; read-out: NDM-1 IC50
Procedure, shortened: as §2

[7] = test system: P. aeruginosa expressing IMP-1, efflux− (MB9799); test: Efflux: concentration of MBL inhibitor which restores susceptibility to imipenem; assay type: cell-based, Pseudomonas aeruginosa; conditions: imipenem at 2 μg/mL, in the presence of a class A, C, D serine β-lactamase inhibitor closely related to relebactam
Text: (§3) The strain background is Pseudomonas aeruginosa PAO1.

[8] = test system: P. aeruginosa expressing IMP-1, efflux+ (MB9798); assay type: cell-based, Pseudomonas aeruginosa; conditions: for P. aeruginosa expressing IMP-1, efflux+ (MB9798) MITC95: imipenem at 2 μg/mL, in the presence of a class A, C, D serine β-lactamase inhibitor closely related to relebactam; for Efflux ratio: ratio MITC95 PA_9798/MITC95 PA_9799
Text: as §3

Sequence of IMP-1 (P52699 whole entry, looked up, species assumed): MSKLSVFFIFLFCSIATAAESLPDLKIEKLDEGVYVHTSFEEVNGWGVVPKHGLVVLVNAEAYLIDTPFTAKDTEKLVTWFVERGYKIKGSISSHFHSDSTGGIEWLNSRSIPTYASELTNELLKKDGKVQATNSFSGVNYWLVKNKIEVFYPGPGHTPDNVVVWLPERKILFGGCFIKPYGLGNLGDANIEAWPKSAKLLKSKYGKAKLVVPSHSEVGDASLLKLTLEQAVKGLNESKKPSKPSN
Sequence of NDM-1 (C7C422 whole entry, looked up, species assumed): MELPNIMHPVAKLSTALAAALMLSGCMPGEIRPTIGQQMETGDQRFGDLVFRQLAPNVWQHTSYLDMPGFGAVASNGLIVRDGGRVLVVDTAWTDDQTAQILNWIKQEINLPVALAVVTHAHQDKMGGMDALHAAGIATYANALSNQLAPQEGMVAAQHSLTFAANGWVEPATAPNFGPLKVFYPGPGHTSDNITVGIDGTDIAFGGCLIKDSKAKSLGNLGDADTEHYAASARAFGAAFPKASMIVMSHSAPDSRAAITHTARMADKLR

Structure (SMILES) | Serratia marcescens expressing IMP-1 (CL5741) MITC95 [1] [µM] | Klebsiella pneumoniae expressing VIM-1 (IHMA599644) MITC95 [2] [µM] | Escherichia coli expressing NDM-1 (CLB30016) MITC95 [3] [µM] | IC50 [4] [nM] | IC50 [5] [nM] | IC50 [6] [nM] | P. aeruginosa expressing IMP-1, efflux− (MB9799) MITC95 [7] [µM] | P. aeruginosa expressing IMP-1, efflux+ (MB9798) MITC95 [8] [µM] | Efflux ratio [8]
NS(=O)(=O)c1c(S(=O)(=O)C2CNC2)ccc(-c2cccn3cc(C(=O)O)nc23)c1-c1nnn[nH]1 [Example 61, 8-(4-(Azetidin-3-ylsulfonyl)-3-sulfamoyl-2-(1H-tetrazol-5-yl)phenyl)imidazo[1,2-a]pyridine-2-carboxylic Acid] | 6.25 | 25 | 12.5 | 0.677 | 2.22 | 0.254 | 12.5 | 12.5 | 1.00
N=C(N)c1nc2c(-c3ccc(S(=O)(=O)C4CNC4)c(S(N)(=O)=O)c3-c3nnn[nH]3)cccc2s1 [Example 62, 4-(4-(Azetidin-3-ylsulfonyl)-3-sulfamoyl-2-(1H-tetrazol-5-yl)phenyl)benzo[d]thiazole-2-carboximidamide] | 1.563 | 1.563 | 0.3906 | 0.396 | 2.63 | 0.345 | 0.7813 | 1.563 | 2.00
NS(=O)(=O)c1c(SC2CNC2)ccc(-c2cccc3nccn23)c1-c1nnn[nH]1 [Example 63, 6-(Azetidin-3-ylthio)-3-(imidazo[1,2-a]pyridin-5-yl)-2-(1H-tetrazol-5-yl)benzenesulfonamide] | 3.125 | 3.125 | 1 | 30.5 | 125 | 5.91 | 1.781 | 50 | 28.07
NCCS(=O)(=O)c1ccc(-c2cccn3ccnc23)c(-c2nnn[nH]2)c1S(N)(=O)=O [Example 64, 6-((2-Aminoethyl)sulfonyl)-3-(imidazo[1,2-a]pyridin-8-yl)-2-(1H-tetrazol-5-yl)benzenesulfonamide] | 1.563 | 3.125 | 1.563 | 0.339 | 0.359 | 1.06 | 1.563 | 1.563 | 1.00
Nc1cn2cccc(-c3ccc(S(=O)(=O)C4CNC4)c(S(N)(=O)=O)c3-c3nnn[nH]3)c2n1 [Example 65, 3-(2-Aminoimidazo[1,2-a]pyridin-8-yl)-6-(azetidin-3-ylsulfonyl)-2-(H-tetraazol-5-yl)benzenesulfonamide] | 6.25 | 12.5 | 1.563 | 0.627 | 2.5 | 0.784 | 6.25 | 25 | 4.00
NS(=O)(=O)c1c(S(=O)(=O)C2CNC2)ccc(-c2cccc3nccn23)c1-c1nnn[nH]1 [Example 66, 6-(Azetidin-3-ylsulfonyl)-3-(imidazo[1,2-a]pyridin-5-yl)-2-(1H-tetrazol-5-yl)benzenesulfonamide] | 6.25 | 12.5 | 3.125 | 0.569 | 9.67 | 0.591 | 6.25 | 50 | 8.00
NC(=O)c1ccc(-c2ccc(S(=O)(=O)C3CNC3)c(S(N)(=O)=O)c2-c2nnn[nH]2)c(N)n1 [Example 67, 6-Amino-5-(4-(azetidin-3-ylsulfonyl)-3-sulfamoyl-2-(1H-tetrazol-5-yl)phenyl)picolinamide] | 3.125 | 3.125 | 1.563 | 0.333 | 1.32 | 0.376 | 1.563 | 3.125 | 2.00
NS(=O)(=O)c1c(S(=O)(=O)C2CNC2)ccc(-c2cccc3sc(C(=O)O)nc23)c1-c1nnn[nH]1 [Example 68, 4-(4-(azetidin-3-ylsulfonyl)-3-sulfamoyl-2-(1H-tetrazol-5-yl)phenyl)benzo[d]thiazole-2-carboxylic Acid] | 6.25 | 12.5 | 6.25 | 0.256 | 0.356 | 0.0709 | 3.125 | 6.25 | 2.00
NCCS(=O)(=O)c1ccc(-c2ccc3[nH]c(N)nc3c2)c(-c2nn[nH]n2)c1S(N)(=O)=O [Example 69, 3-(2-amino-1H-benzo[d]imidazol-5-yl)-6-(2-aminoethylsulfonyl)-2-(2H-tetrazol-5-yl)benzenesulfonamide] | 0.4453 | 0.8906 | 0.25 | 0.485 | 2.77 | 1.25 | 0.4453 | 3.125 | 7.02
NCCS(=O)(=O)c1ccc(-c2cccc3nc(N)[nH]c23)c(-c2nn[nH]n2)c1S(N)(=O)=O [Example 70, 3-(2-amino-3H-benzo[d]imidazol-4-yl)-6-(2-aminoethylsulfonyl)-2-(2H-tetrazol-5-yl)benzenesulfonamide] | 0.6406 | 0.8906 | 0.25 | 0.37 | 0.796 | 0.251 | 0.4453 | 0.4453 | 1.00
NCCS(=O)(=O)c1ccc(-c2cccc3ccc(N)nc23)c(-c2nn[nH]n2)c1S(N)(=O)=O [Example 71, 6-(2-aminoethylsulfonyl)-3-(2-aminoquinolin-8-yl)-2-(2H-tetrazol-5-yl)benzenesulfonamide] | 0.7813 | 1.563 | 0.3906 | 0.315 | 0.129 | 0.115 | 0.7813 | 0.7813 | 1.00
NCCS(=O)(=O)c1ccc(-c2ccc(C(F)(F)F)c3sc(N)nc23)c(-c2nn[nH]n2)c1S(N)(=O)=O [Example 72, 3-(2-amino-7-(trifluoromethyl)benzo[d]thiazol-4-yl)-6-(2-aminoethylsulfonyl)-2-(2H-tetrazol-5-yl)benzenesulfonamide] | 1.563 | 1.563 | 0.7813 | 0.286 | 0.322 | 0.153 | 0.7813 | 3.125 | 4.00
NCCS(=O)(=O)c1ccc(-c2cccc3cc(N)ncc23)c(-c2nn[nH]n2)c1S(N)(=O)=O [Example 73, 6-(2-aminoethylsulfonyl)-3-(3-aminoisoquinolin-8-yl)-2-(2H-tetrazol-5-yl)benzenesulfonamide] | 3.125 | 3.125 | 0.7813 | 0.241 | 0.214 | 0.109 | 1.563 | 1.563 | 1.00
